Measured values published in article PMC4410974 (Clinical cancer research : an official journal of the …, 2012).

What was measured:
Adverse events = type: in vivo, human
[1] = Tumor response by RECIST 1.0; type: in vivo, human
[2] = oral multiple dosing; ref [17]–[19]; cited from earlier work
[3] = three studies collectively, 138 subjects

SMILES: CO[C@H]1C[C@@H]2CC[C@@H](C)[C@@](O)(O2)C(=O)C(=O)N2CCCC[C@H]2C(=O)O[C@H]([C@H](C)C[C@@H]2CC[C@@H](O)[C@H](OC)C2)CC(=O)[C@H](C)/C=C(\C)[C@@H](O)[C@@H](OC)C(=O)[C@H](C)C[C@H](C)/C=C/C=C/C=C/1C [Sirolimus]
- Altered taste (adverse event) (Adverse events; Sirolimus Alone 10mg): 1
- Anemia (adverse event) (Adverse events; Sirolimus Alone 10mg): 3
- Anorexia (adverse event) (Adverse events; Sirolimus Alone 10mg): 1
- Diarrhea (adverse event) (Adverse events; Sirolimus Alone 10mg): 1
- Elevated Transaminases (adverse event) (Adverse events; Sirolimus Alone 10mg): 1
- Fatigue (adverse event) (Adverse events; Sirolimus Alone 10mg): 2
- Hyperlipidemia (adverse event) (Adverse events; Sirolimus Alone 10mg): 2
- Infection (adverse event) (Adverse events; Sirolimus Alone 10mg): 1
- Lymphopenia (adverse event) (Adverse events; Sirolimus Alone 10mg): 3
- Lymphopenia, grade 3 or 4 (Adverse events; Sirolimus Alone 10mg): 2
- Mucocutaneous dryness (adverse event) (Adverse events; Sirolimus Alone 10mg): 1
- Mucositis (adverse event) (Adverse events; Sirolimus Alone 10mg): 2
- Nausea (adverse event) (Adverse events; Sirolimus Alone 10mg): 3
- Paresthesia (adverse event) (Adverse events; Sirolimus Alone 10mg): 1
- Rash (adverse event) (Adverse events; Sirolimus Alone 10mg): 1
- Vomiting (adverse event) (Adverse events; Sirolimus Alone 10mg): 2
- Altered taste (adverse event) (Adverse events; Sirolimus Alone 20mg): 1
- Anemia (adverse event) (Adverse events; Sirolimus Alone 20mg): 5
- Anorexia (adverse event) (Adverse events; Sirolimus Alone 20mg): 1
- Decreased platelets (adverse event) (Adverse events; Sirolimus Alone 20mg): 1
- Diarrhea (adverse event) (Adverse events; Sirolimus Alone 20mg): 5
- Dyspnea (adverse event) (Adverse events; Sirolimus Alone 20mg): 1
- Elevated Transaminases (adverse event) (Adverse events; Sirolimus Alone 20mg): 4
- Fatigue (adverse event) (Adverse events; Sirolimus Alone 20mg): 4
- Hyperglycemia (adverse event) (Adverse events; Sirolimus Alone 20mg): 6
- Hyperlipidemia (adverse event) (Adverse events; Sirolimus Alone 20mg): 4
- Hypoxia (adverse event) (Adverse events; Sirolimus Alone 20mg): 2
- Infection (adverse event) (Adverse events; Sirolimus Alone 20mg): 1(1)
- Infection, grade 3 or 4 (Adverse events; Sirolimus Alone 20mg): 1(1)
- Lymphopenia (adverse event) (Adverse events; Sirolimus Alone 20mg): 4
- Lymphopenia, grade 3 or 4 (Adverse events; Sirolimus Alone 20mg): 1
- Mucositis (adverse event) (Adverse events; Sirolimus Alone 20mg): 1
- Nausea (adverse event) (Adverse events; Sirolimus Alone 20mg): 2
- Pneumonia (adverse event) (Adverse events; Sirolimus Alone 20mg): 2(2)
- Pneumonia, grade 3 or 4 (Adverse events; Sirolimus Alone 20mg): 2(2)
- Anemia (adverse event) (Adverse events; Sirolimus Alone 30mg): 3
- Anorexia (adverse event) (Adverse events; Sirolimus Alone 30mg): 1(1)
- Anorexia, grade 3 or 4 (Adverse events; Sirolimus Alone 30mg): 1(1)
- Decreased platelets (adverse event) (Adverse events; Sirolimus Alone 30mg): 1
- Diarrhea (adverse event) (Adverse events; Sirolimus Alone 30mg): 2
- Elevated Transaminases (adverse event) (Adverse events; Sirolimus Alone 30mg): 2
- Fatigue (adverse event) (Adverse events; Sirolimus Alone 30mg): 1
- Fever (adverse event) (Adverse events; Sirolimus Alone 30mg): 2
- Hyperglycemia (adverse event) (Adverse events; Sirolimus Alone 30mg): 6
- Hyperlipidemia (adverse event) (Adverse events; Sirolimus Alone 30mg): 3
- Hyperlipidemia, grade 3 or 4 (Adverse events; Sirolimus Alone 30mg): 1
- Hypertension (adverse event) (Adverse events; Sirolimus Alone 30mg): 1
- Infection (adverse event) (Adverse events; Sirolimus Alone 30mg): 1(1)
- Infection, grade 3 or 4 (Adverse events; Sirolimus Alone 30mg): 1(1)
- Lymphopenia (adverse event) (Adverse events; Sirolimus Alone 30mg): 3
- Lymphopenia, grade 3 or 4 (Adverse events; Sirolimus Alone 30mg): 1
- Mucocutaneous dryness (adverse event) (Adverse events; Sirolimus Alone 30mg): 1
- Nausea (adverse event) (Adverse events; Sirolimus Alone 30mg): 4
- Nausea, grade 3 or 4 (Adverse events; Sirolimus Alone 30mg): 1
- Pneumonia (adverse event) (Adverse events; Sirolimus Alone 30mg): 1
- Rash (adverse event) (Adverse events; Sirolimus Alone 30mg): 1
- Vomiting (adverse event) (Adverse events; Sirolimus Alone 30mg): 2
- Decreased platelets (adverse event) (Adverse events; Sirolimus Alone 30mg (4h)): 1
- Diarrhea (adverse event) (Adverse events; Sirolimus Alone 30mg (4h)): 4
- Elevated Transaminases (adverse event) (Adverse events; Sirolimus Alone 30mg (4h)): 1
- Fatigue (adverse event) (Adverse events; Sirolimus Alone 30mg (4h)): 1
- Hyperglycemia (adverse event) (Adverse events; Sirolimus Alone 30mg (4h)): 1
- Leukopenia (adverse event) (Adverse events; Sirolimus Alone 30mg (4h)): 2
- Nausea (adverse event) (Adverse events; Sirolimus Alone 30mg (4h)): 2
- Vomiting (adverse event) (Adverse events; Sirolimus Alone 30mg (4h)): 2
- Diarrhea (adverse event) (Adverse events; Sirolimus Alone 30mg (24h)): 2
- Infection (adverse event) (Adverse events; Sirolimus Alone 30mg (24h)): 1(1)
- Infection, grade 3 or 4 (Adverse events; Sirolimus Alone 30mg (24h)): 1(1)
- Mucositis (adverse event) (Adverse events; Sirolimus Alone 30mg (24h)): 1
- Nausea (adverse event) (Adverse events; Sirolimus Alone 30mg (24h)): 1
- Rash (adverse event) (Adverse events; Sirolimus Alone 30mg (24h)): 1
- Anorexia (adverse event) (Adverse events; Sirolimus Alone 45mg (24h)): 1
- Diarrhea (adverse event) (Adverse events; Sirolimus Alone 45mg (24h)): 3
- Diarrhea, grade 3 or 4 (Adverse events; Sirolimus Alone 45mg (24h)): 1
- Hyperglycemia (adverse event) (Adverse events; Sirolimus Alone 45mg (24h)): 1
- Mood Alteration (adverse event) (Adverse events; Sirolimus Alone 45mg (24h)): 1
- Nausea (adverse event) (Adverse events; Sirolimus Alone 45mg (24h)): 2
- Vomiting (adverse event) (Adverse events; Sirolimus Alone 45mg (24h)): 4
- Anorexia (adverse event) (Adverse events; Sirolimus Alone 60mg): 3
- Decreased platelets (adverse event) (Adverse events; Sirolimus Alone 60mg): 1
- Diarrhea (adverse event) (Adverse events; Sirolimus Alone 60mg): 6
- Diarrhea, grade 3 or 4 (Adverse events; Sirolimus Alone 60mg): 1
- Elevated Transaminases (adverse event) (Adverse events; Sirolimus Alone 60mg): 1
- Fatigue (adverse event) (Adverse events; Sirolimus Alone 60mg): 5
- Fever (adverse event) (Adverse events; Sirolimus Alone 60mg): 1
- Hyperglycemia (adverse event) (Adverse events; Sirolimus Alone 60mg): 4
- Hyperlipidemia (adverse event) (Adverse events; Sirolimus Alone 60mg): 6
- Hyperlipidemia, grade 3 or 4 (Adverse events; Sirolimus Alone 60mg): 1
- Infection (adverse event) (Adverse events; Sirolimus Alone 60mg): 1
- Lymphopenia (adverse event) (Adverse events; Sirolimus Alone 60mg): 3
- Nausea (adverse event) (Adverse events; Sirolimus Alone 60mg): 6
- Rash (adverse event) (Adverse events; Sirolimus Alone 60mg): 1
- Vomiting (adverse event) (Adverse events; Sirolimus Alone 60mg): 5
- Weight Loss (adverse event) (Adverse events; Sirolimus Alone 60mg): 4
- Altered taste (adverse event) (Adverse events; Total (n=138)): 5
- Anemia (adverse event) (Adverse events; Total (n=138)): 46
- Anemia, grade 3 or 4 (Adverse events; Total (n=138)): 5
- Anorexia (adverse event) (Adverse events; Total (n=138)): 32
- Anorexia, grade 3 or 4 (Adverse events; Total (n=138)): 1
- Decreased platelets (adverse event) (Adverse events; Total (n=138)): 22
- Diarrhea (adverse event) (Adverse events; Total (n=138)): 58
- Diarrhea, grade 3 or 4 (Adverse events; Total (n=138)): 3
- Dyspnea (adverse event) (Adverse events; Total (n=138)): 6
- Dyspnea, grade 3 or 4 (Adverse events; Total (n=138)): 1
- Edema (adverse event) (Adverse events; Total (n=138)): 5
- Edema, grade 3 or 4 (Adverse events; Total (n=138)): 1
- Elevated Creatinine (adverse event) (Adverse events; Total (n=138)): 1
- Elevated Transaminases (adverse event) (Adverse events; Total (n=138)): 23
- Elevated Transaminases, grade 3 or 4 (Adverse events; Total (n=138)): 2
- Epistaxis (adverse event) (Adverse events; Total (n=138)): 1
- Fatigue (adverse event) (Adverse events; Total (n=138)): 46
- Fatigue, grade 3 or 4 (Adverse events; Total (n=138)): 3
- Fever (adverse event) (Adverse events; Total (n=138)): 4
- Hand & Foot Syndrome (adverse event) (Adverse events; Total (n=138)): 2
- Hyperglycemia (adverse event) (Adverse events; Total (n=138)): 72
- Hyperglycemia, grade 3 or 4 (Adverse events; Total (n=138)): 7
- Hyperlipidemia (adverse event) (Adverse events; Total (n=138)): 59
- Hyperlipidemia, grade 3 or 4 (Adverse events; Total (n=138)): 3
- Hypertension (adverse event) (Adverse events; Total (n=138)): 2
- Hypocalcemia (adverse event) (Adverse events; Total (n=138)): 2
- Hypoglycemia (adverse event) (Adverse events; Total (n=138)): 1(1)
- Hypoglycemia, grade 3 or 4 (Adverse events; Total (n=138)): 1(1)
- Hypoxia (adverse event) (Adverse events; Total (n=138)): 2
- Infection (adverse event) (Adverse events; Total (n=138)): 14
- Infection, grade 3 or 4 (Adverse events; Total (n=138)): 4
- Leukopenia (adverse event) (Adverse events; Total (n=138)): 17
- Lymphopenia (adverse event) (Adverse events; Total (n=138)): 56
- Lymphopenia, grade 3 or 4 (Adverse events; Total (n=138)): 14
- Mood Alteration (adverse event) (Adverse events; Total (n=138)): 2
- Mucocutaneous dryness (adverse event) (Adverse events; Total (n=138)): 6
- Mucositis (adverse event) (Adverse events; Total (n=138)): 17
- Myalgia (adverse event) (Adverse events; Total (n=138)): 3
- Nail Changes (adverse event) (Adverse events; Total (n=138)): 1(1)
- Nail Changes, grade 3 or 4 (Adverse events; Total (n=138)): 1(1)
- Nausea (adverse event) (Adverse events; Total (n=138)): 48
- Nausea, grade 3 or 4 (Adverse events; Total (n=138)): 2
- Neutropenia (adverse event) (Adverse events; Total (n=138)): 7
- Paresthesia (adverse event) (Adverse events; Total (n=138)): 2
- Pleural Effusion (adverse event) (Adverse events; Total (n=138)): 1
- Pneumonia (adverse event) (Adverse events; Total (n=138)): 5
- Pneumonia, grade 3 or 4 (Adverse events; Total (n=138)): 4
- Pruritis (adverse event) (Adverse events; Total (n=138)): 6
- Rash (adverse event) (Adverse events; Total (n=138)): 14
- Vomiting (adverse event) (Adverse events; Total (n=138)): 33
- Vomiting, grade 3 or 4 (Adverse events; Total (n=138)): 1
- Weight Loss (adverse event) (Adverse events; Total (n=138)): 15
- Hyperglycemia, subjects with toxicity (Adverse events; [3]): 52%
- Hyperlipidemia, subjects with toxicity (Adverse events; [3]): 43%
- Lymphopenia, subjects with toxicity (Adverse events; [3]): 41%
- Partial response ([1]; collective studies, patient with epithelioid hemangioendothelioma with hepatic metastases): One partial response
- Stable disease, number of subjects ([1]; per study): 16
- Stable disease, percent of subjects ([1]; per study): 40%
- volume of distribution [2]: 12 L/kg
